“Also recorded” adds a separate entry of the source. Marks after values point to notes of the source that are not given here.
Experiments:
[1] = system: mouse neuroblastoma (N2a) cells; assay: Quantitative real-time RT-PCR: mRNA expression of mitochondrial dynamics, biogenesis and synaptic genes; format: cell-based; settings: N2a cells
Protocol: (§1) Tissue culture: The N2a cells were grown for 3 days in a serum-free medium (1:1 mixture of DMEM and OptiMEM, plus penicillin and streptomycin [Invitrogen, Carlsbad, Calif., USA]) until the cells developed neuronal processes.
Quantitative real-time RT-PCR: Using the reagent TriZol (Invitrogen), total RNA was isolated from cell pellets from the 5 N2a cell groups (FIG. 1). Using primer express software (Applied Biosystems, Carlsbad, Calif., USA), the inventors designed the oligonucleotide primers for the housekeeping genes 3-actin, GAPDH, mitochondrial structural genes, fission genes (Drp1, Fis1), fusion genes (MFN1, MFN2, Opa1), biogenesis genes (PGC1c, Nrf1, Nrf2, TFAM), and synaptic genes (synaptophysin and PSD95) (see Table 1 for primer sequences and amplicon sizes). Using SYBR-Green chemistry-based quantitative real-time RT-PCR, mRNA expressions of the above-mentioned genes were measured, as described by Manczak and Reddy.
The mRNA transcript level was normalized against β-actin and the GAPDH at each dilution. The standard curve was the normalized mRNA transcript level, plotted against the log-value of the input cDNA concentration at each dilution. To compare β-actin, GAPDH, and relative quantification was performed according to the (CT) method (Applied Biosystems). […] The ΔCT-value was obtained by subtracting the average β-actin CT value from the average CT-value of the synaptic mitochondrial ETC genes and the mitochondrial structural genes. The ΔCT of untreated cells was used as the calibrator. The fold change was calculated according to the formula 2^-(Δ ΔCT), where ΔΔCT is the difference between ΔCT and the ΔCT calibrator value. To determine the statistical significance of mRNA expression, the CT value differences between the untreated cells and other experimental groups of cells were used in relation to β-actin normalization. Statistical significance was calculated, using one-way ANOVA.

N2a cells [2] = assay: Soluble Aβ42 levels by sandwich ELISA; format: cell-based, mouse; settings: vs N2a cells treated only with Aβ42
Protocol: as §1
Briefly, protein lysates from untreated control N2a cells and lysates from 4 treatment groups were homogenized in a Tris-buffered saline (pH 8.0) containing protease inhibitors ([…] pepstatin A, aprotinin, phophsoramidon, and leupeptin; 0.5 mM phenylmethanesulfonyl fluoride and 1 mM ethyleneglycol-bis(flaminoethyl ether)-NN tetraacetic acid). Samples were sonicated briefly and centrifuged at 10,000 g for 20 min at 4° C. The soluble fraction was used to determine the soluble Aβ by ELISA. For each sample, Aβ1-40 and Aβ1-42 were measured with commercial colorimetric ELISA kits (Biosource International, Camarillo, Calif., USA) that were specific for each species. A 96-well plate reader was used, following the manufacturer's instructions. Each sample was run in duplicate. Protein concentrations of the homogenates were determined following the […], and Aβ was expressed as pg Aβ/mg protein.

N2a cell mitochondria = assay: Mitochondrial ATP levels (luciferase bioluminescence); format: cell-based, mouse; settings: N2a cells
Protocol: as §1
ATP levels: ATP levels were measured in N2a cell mitochondria from the treatment groups using an ATP determination kit (Molecular Probes). A bioluminescence assay was used, based on the reaction of ATP with recombinant firefly luciferase and its substract luciferin. Luciferase catalyzes the formation of light from ATP and luciferin. It is the emitted light that is linearly related to the concentration of ATP, which is measured with a luminometer. ATP levels were measured from mitochondrial pellets using a standard curve method.

N2a cells [3] = assay: Cell viability (MTT assay); format: cell-based, mouse
Protocol: as §1
The N2a cells from all 5 groups (4 treatment groups and 1 control group) were harvested, and their cell pellets were collected and used for quantitative real-time RT-PCR, immunoblotting analysis of mitochondrial and synaptic proteins, and mitochondrial functional assays for hydrogen peroxide production, lipid peroxidation, cytochrome c oxidase activity, and MTT determination. Isolated mitochondria from N2a cells from all 5 groups were used to determine mitochondrial ATP as described in Reddy et al..

[4] = Aβ42 6 hrs then Mdivi1 24 hrs (Aβ42+Mdivi1), vs Aβ42 treated cells
[5] = Aβ42 6 hrs then Mdivi1 24 hrs (Aβ42+Mdivi1), vs untreated N2a cells
[6] = Mdivi1 24 hrs or Aβ42 20 μM 6 hrs alone, vs untreated N2a cells
[7] = Mdivi1 24 hrs then Aβ42 6 hrs (Mdivi1+Aβ42), vs Aβ42 treated cells
[8] = Mdivi1 24 hrs then Aβ42 6 hrs (Mdivi1+Aβ42), vs untreated N2a cells

`COc1cc(-n2c(S)nc3ccccc3c2=O)c(Cl)cc1Cl` [Mdivi1, 3-(2,4-Dichloro-5-methoxyphenyl)-2,3-dihydro-2-thioxo-4(1H)-quinazolinone] was tested, and the “Drp1 mRNA expression level, lower by fold” value [1, 4] was 1.5 fold, the “Drp1 mRNA fold change” value [1, 4] was −1.5* fold and the “Fis1 mRNA expression level, lower by fold” value [1, 4] was 1.7 fold. For the same molecule, the “Fis1 mRNA fold change” value [1, 4] was −1.7* fold, the “Mfn1 mRNA fold change” value [1, 4] was 1.6 fold and the “Mfn2 mRNA fold change” value [1, 4] was 1.6 fold. For the same molecule, the “Nrf1 mRNA fold change” value [1, 4] was 2.0 fold, the “OPA1 mRNA fold change” value [1, 4] was 1.3 fold and the “PGC1α mRNA fold change” value [1, 4] was 8.1 fold. The “Synaptophysin mRNA fold change” value [1, 4] was 1.5 fold, the “CypD mRNA level” value [1, 5] was “unchanged” and the “PGC1α mRNA fold change” value [1, 5] was 1.4 fold. The “PSD95 mRNA fold change” value [1, 5] was 4.8 fold, the “Synaptophysin mRNA fold change” value [1, 5] was 1.2 fold and the “TFAM mRNA fold change” value [1, 5] was 1.2 fold. For the same molecule, the “Drp1 mRNA fold change” value [1, 6] was −1.5* fold, the “Drp1 mRNA level, fold decrease” value [1, 6] was 1.5 fold and the “Fis1 mRNA fold change” value [1, 6] was −1.3 fold. The “Fis1 mRNA level, fold decrease” value [1, 6] was 1.3 fold, the “Mfn1 mRNA fold change” value [1, 6] was 1.3 fold and the “Mfn2 mRNA fold change” value [1, 6] was 1.2 fold. For the same molecule, the “Nrf1 mRNA fold change” value [1, 6] was 2.2 fold, the “Nrf2 mRNA fold change” value [1, 6] was 1.6 fold and the “OPA1 mRNA fold change” value [1, 6] was 1.2 fold. For the same molecule, the “PGC1α mRNA fold change” value [1, 6] was 2.2 fold, the “PSD95 mRNA fold change” value [1, 6] was 5.1 fold and the “Synaptophysin mRNA fold change” value [1, 6] was 1.3 fold. The “TFAM mRNA fold change” value [1, 6] was 1.5 fold, the “Drp1 mRNA expression level, lower by fold” value [1, 7] was 1.5 fold and the “Drp1 mRNA fold change” value [1, 7] was −1.5* fold. For the same molecule, the “Fis1 mRNA expression level, lower by fold” value [1, 7] was 1.6 fold, the “Fis1 mRNA fold change” value [1, 7] was −1.6* fold and the “Mfn2 mRNA fold change” value [1, 7] was 2.2 fold. The “Nrf1 mRNA fold change” value [1, 7] was 2.7 fold, the “Nrf2 mRNA fold change” value [1, 7] was 2.7 fold and the “OPA1 mRNA fold change” value [1, 7] was 2.3 fold. For the same molecule, the “PGC1α mRNA fold change” value [1, 7] was 6.5 fold, the “PSD95 mRNA fold change” value [1, 7] was 3.8 fold and the “Synaptophysin mRNA fold change” value [1, 7] was 2.2 fold. The “TFAM mRNA fold change” value [1, 7] was 3.2 fold, the “Drp1 mRNA fold change” value [1, 8] was −1.1 fold and the “Fis1 mRNA fold change” value [1, 8] was −1.2 fold. The “Mfn1 mRNA fold change” value [1, 8] was 2.1 fold, the “Mfn2 mRNA fold change” value [1, 8] was 1.7 fold and the “Nrf1 mRNA fold change” value [1, 8] was 1.3 fold. For the same molecule, the “Nrf2 mRNA fold change” value [1, 8] was 1.3 fold, the “OPA1 mRNA fold change” value [1, 8] was 1.9 fold and the “PGC1α mRNA fold change” value [1, 8] was 1.1 fold. The “PSD95 mRNA fold change” value [1, 8] was 1.5 fold, the “Synaptophysin mRNA fold change” value [1, 8] was 1.7 fold and the “TFAM mRNA fold change” value [1, 8] was 1.3 fold. For the same molecule, the Aβ42 levels (N2a cells [2]; Aβ42 6 hrs then Mdivi1 24 hrs (Aβ42+Mdivi1, curative)) was “Significantly reduced; also recorded: significantly lower”, the Aβ42 levels (N2a cells [2]; Mdivi1 24 hrs then Aβ42 6 hrs (Mdivi1+Aβ42, preventive)) was “Significantly reduced; also recorded: significantly lower” and the “Mitochondrial ATP levels” value (N2a cell mitochondria; Aβ42 6 hrs then Mdivi1 24 hrs (Aβ42+Mdivi1), vs Aβ42-treated N2a cells (FIG. 7B)) was “Significantly higher”. For the same molecule, the “Mitochondrial ATP levels” value (N2a cell mitochondria; [6]) was “Significantly increased”, the “Mitochondrial ATP levels” value (N2a cell mitochondria; Mdivi1 24 hrs then Aβ42 6 hrs (Mdivi1+Aβ42), vs Aβ42-treated N2a cells (FIG. 7B)) was “Significantly higher” and the Cell viability (N2a cells [3]; Aβ42 6 hrs then Mdivi1 24 hrs (Aβ42+Mdivi1), vs N2a+Aβ42) was “higher”. For the same molecule, the Cell viability (N2a cells [3]; [6]) was “significantly higher” and the Cell viability (N2a cells [3]; Mdivi1 24 hrs then Aβ42 6 hrs (Mdivi1+Aβ42), vs N2a+Aβ42) was “higher”.

Reference: patent US20190307749A1, “Mitochondria-Division Inhibitor 1 Protects Against Amyloid-B Induced Mitochondrial Fragmentation and Synaptic Damage in Alzheimer's Disease” (Texas Tech University System, priority 2018, published 2019)
